Measured values reported in the supplement of paper PMC10307832.

Columns and labels:
Test in all cases: relative viability (nuclei count vs DMSO), 5 days (fraction); higher = more cells survive
[1] = compound: CC1=C(N=C(N=C1N)[C@H](CC(=O)N)NC[C@@H](C(=O)N)N)C(=O)N[C@@H]([C@H](C2=CN=CN2)OC3C(C(C(C(O3)CO)O)O)OC4C(C(C(C(O4)CO)O)OC(=O)N)O)C(=O)N[C@H](C)[C@H]([C@H](C)C(=O)N[C@@H]([C@@H](C)O)C(=O)NCCC5=NC(=CS5)C6=NC(=CS6)C(=O)NCCC[S+](C)C)O [Bleomycin] + Cc1nc(NC(=O)N2CCC[C@H]2C(N)=O)sc1-c1ccnc(C(C)(C)C(F)(F)F)c1 [Alpelisib] (partner 2 µM); details: main component drawn
In short: (§1)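 Relative viability equals treated-well nuclei counts divided by vehicle-well nuclei counts. Counts came from 4× images of lung cancer cell lines grown in 1536-well plates for 5 days after pin-tool dosing on the day after seeding. Dosing used one drug alone or a fixed anchor-drug dose plus five library-drug doses (not always all listed) in √10 steps, and values are medians of duplicate plates.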

[2] = compound: COc1cc([C@@H]2c3cc4c(cc3[C@@H](O[C@@H]3O[C@@H]5CO[C@@H](C)O[C@H]5[C@H](O)[C@H]3O)[C@H]3COC(=O)[C@H]23)OCO4)cc(OC)c1O [Etoposide] + CC(C)C[C@H](NC(=O)[C@H](Cc1ccccc1)NC(=O)c1cnccn1)B(O)O [Bortezomib] (partner 0.002 µM)
In short: as §1

[3] = compound: CC1=C(N=C(N=C1N)[C@H](CC(=O)N)NC[C@@H](C(=O)N)N)C(=O)N[C@@H]([C@H](C2=CN=CN2)OC3C(C(C(C(O3)CO)O)O)OC4C(C(C(C(O4)CO)O)OC(=O)N)O)C(=O)N[C@H](C)[C@H]([C@H](C)C(=O)N[C@@H]([C@@H](C)O)C(=O)NCCC5=NC(=CS5)C6=NC(=CS6)C(=O)NCCC[S+](C)C)O [Bleomycin] + O=C(c1cc(Cc2n[nH]c(=O)c3ccccc23)ccc1F)N1CCN(C(=O)C2CC2)CC1 [Olaparib] (partner 8 µM); details: main component drawn
In short: as §1

[4] = compound: COc1cc([C@@H]2c3cc4c(cc3[C@@H](O[C@@H]3O[C@@H]5CO[C@@H](C)O[C@H]5[C@H](O)[C@H]3O)[C@H]3COC(=O)[C@H]23)OCO4)cc(OC)c1O [Etoposide] + C[C@]1(O)C[C@@H](c2nc(-c3ccc4ccc(-c5ccccc5)nc4c3)c3c(N)nccn32)C1 [Linsitinib] (partner 1 µM)
In short: as §1

| Cell Line | relative viability ([1]; first compound 0.01 µM) | relative viability ([1]; first compound 0.03162 µM) | relative viability ([1]; first compound 0.1 µM) | relative viability ([1]; first compound 0.3162 µM) | relative viability ([1]; first compound 1 µM) | relative viability ([2]; first compound 0.01 µM) | relative viability ([2]; first compound 0.03162 µM) | relative viability ([2]; first compound 0.1 µM) | relative viability ([2]; first compound 0.3162 µM) | relative viability ([2]; first compound 1 µM) | relative viability ([3]; first compound 0.01 µM) | relative viability ([3]; first compound 0.03162 µM) | relative viability ([3]; first compound 0.1 µM) | relative viability ([3]; first compound 0.3162 µM) | relative viability ([3]; first compound 1 µM) | relative viability ([4]; first compound 0.01 µM) | relative viability ([4]; first compound 0.03162 µM) | relative viability ([4]; first compound 0.1 µM) | relative viability ([4]; first compound 0.3162 µM) | relative viability ([4]; first compound 1 µM) |
| --- | --- | --- | --- | --- | --- | --- | --- | --- | --- | --- | --- | --- | --- | --- | --- | --- | --- | --- | --- | --- |
| NCI-H322M | 0.738 | 0.84 | 0.81 | 0.859 | 0.559 | 1.27 | 1.22 | 0.994 | 1.17 | 1.07 | 0.612 | 0.823 | 0.675 | 0.545 | 0.447 | 0.902 | 0.993 | 0.727 | 0.845 | 0.565 |
| NCI-H520 | 0.759 | 0.796 | 0.863 | 0.543 | 0.402 | 0.484 | 0.634 | 0.379 | 0.576 | 0.561 | 0.339 | 0.322 | 0.325 | 0.251 | 0.268 | 0.927 | 1.04 | 1.1 | 0.895 | 0.9 |
| NCI-H661 | 0.439 | 0.66 | 0.411 | 0.247 | 0.196 | 0.735 | 0.828 | 0.531 | 0.543 | 0.276 | 0.654 | 0.59 | 0.513 | 0.322 | 0.363 | 0.591 | 0.547 | 0.388 | 0.398 | 0.235 |
| NCI-H727 | 0.499 | 0.529 | 0.491 | 0.293 | 0.308 | 0.764 | 1.07 | 0.536 | 0.857 | 0.659 | 0.732 | 0.634 | 0.612 | 0.592 | 0.624 | 0.239 | 0.286 | 0.3 | 0.337 | 0.349 |
| NCI-H1734 | 0.626 | 0.519 | 0.514 | 0.27 | 0.216 | 0.894 | 0.878 | 0.572 | 0.624 | 0.308 | 0.505 | 0.451 | 0.377 | 0.222 | 0.148 | 0.746 | 0.932 | 0.725 | 0.688 | 0.509 |
| LXF-289 | 0.923 | 1.04 | 0.9 | 0.332 | 0.162 | 1.01 | 1.07 | 0.994 | 0.75 | 0.252 | 0.887 | 0.831 | 0.864 | 0.168 | 0.127 | 0.968 | 1.06 | 1 | 0.703 | 0.293 |
| H3255 | 0.532 | 0.69 | 0.508 | 0.335 | 0.305 | 0.831 | 0.777 | 0.516 | 0.591 | 0.383 | 0.491 | 0.519 | 0.495 | 0.373 | 0.344 | 0.872 | 1.11 | 0.815 | 0.713 | 0.336 |
| 201T | 0.956 | 0.949 | 0.96 | 0.862 | 0.753 | 1.04 | 1.1 | 1.01 | 1.04 | 0.765 | 0.759 | 0.763 | 0.715 | 0.507 | 0.411 | 1.12 | 1.04 | 0.899 | 1 | 0.745 |
| NCI-H2228 | 0.905 | 0.959 | 0.696 | 0.341 | 0.376 | 1 | 1.17 | 0.731 | 0.717 | 0.22 | 0.443 | 0.574 | 0.457 | 0.211 | 0.159 | 0.535 | 0.57 | 0.728 | 0.627 | 0.462 |
| HOP-62 | 0.412 | 0.458 | 0.185 | 0.116 | 0.13 | 0.644 | 0.901 | 0.298 | 0.412 | 0.328 | 0.175 | 0.137 | 0.0997 | 0.0722 | 0.0872 | 0.963 | 1.05 | 0.657 | 0.631 | 0.269 |
| CAL-12T | 0.666 | 0.883 | 0.433 | 0.235 | 0.244 | 1.07 | 1.08 | 0.846 | 0.648 | 0.385 | 0.416 | 0.375 | 0.217 | 0.177 | 0.135 | 0.791 | 0.849 | 0.619 | 0.597 | 0.181 |
| NCI-H596 | 0.377 | 0.686 | 0.395 | 0.259 | 0.269 | 0.798 | 1.1 | – | 0.968 | 0.977 | 0.599 | 0.515 | 0.515 | 0.371 | 0.438 | 0.86 | 1.13 | – | 0.948 | 0.884 |
| NCI-H1755 | 0.939 | 0.93 | 0.906 | 0.658 | 0.58 | 0.995 | 1.02 | 0.887 | 0.9 | 0.969 | 0.782 | 0.79 | 0.833 | 0.639 | 0.599 | 0.985 | 1.03 | 0.974 | 0.951 | 0.858 |
| NCI-H2023 | 0.403 | 0.536 | 0.325 | 0.149 | 0.101 | 0.975 | 1.15 | 0.456 | 0.46 | 0.123 | 0.273 | 0.357 | 0.238 | 0.0886 | 0.09 | 0.617 | 0.646 | 0.651 | 0.444 | 0.171 |
| NCI-H2009 | 1.05 | 1.16 | 1.16 | 0.84 | 0.531 | 0.975 | 1.1 | 0.933 | 0.628 | 0.241 | 0.586 | 0.709 | 0.62 | 0.453 | 0.268 | 1.09 | 1.24 | 1.25 | 0.839 | 0.401 |
